For orientation: IC50 means the concentration that inhibits the measured activity by half. What is called Ki is the equilibrium dissociation constant of an inhibitor or competing ligand from its target.

The target in test [1] is Adenosine receptor A1 (Mesocricetus auratus). As to the kind of experiment: Agonist activity at adenosine A1 receptor assessed as inhibition of isoproterenol-stimulated cAMP accumulation in DDT1MF-2 cells.
The target is the same in test [2]. Kind of test: Displacement of [3H]CPX from adenosine A1 receptor in DDT1MF-2 cells. (In general: Displacement assays read how much labelled ligand stays bound in the presence of the test substance.)
In test [3] the test system is Adenosine receptor A1 (Mesocricetus auratus). As to the kind of experiment: Intrinsic activity at adenosine A1 receptor assessed as maximal inhibition of isoproterenol-stimulated cAMP accumulation in DDT1MF-2 cells relative to CPA.
Test [4] has the same test system. As to the kind of experiment: Ratio of Ki to IC50 for adenosine A1 receptor.

For the compound `CCSC[C@H]1O[C@@H](n2cnc3c(NC4CCCC4)ncnc32)[C@H](O)[C@@H]1O`, the IC50 in test [1] turned out to be 21 nM. For the same compound, the affinity in test [2] corresponds to a Ki of 173 nM. Also, the Intrinsic activity in test [3] is 1.02.

For `O[C@@H]1[C@H](O)[C@@H](CF)O[C@H]1n1cnc2c(N[C@H]3C[C@H]4CC[C@H]3C4)ncnc21`, the IC50 in test [1] is 7 nM. In addition, the Ki in test [2] turned out to be 17 nM. For the same compound, the Intrinsic activity in test [3] worked out at 0.97. Moreover, the Ratio in test [4] came out at 1.3.

Take `CCNC(=O)[C@H]1O[C@@H](n2cnc3c(N[C@H]4C[C@@H]5C[C@@H]4C4SC45)ncnc32)[C@H](O)[C@@H]1O` (stereo partly drawn): the IC50 in test [1] is 0.12 nM. This compound displayed a Ki in test [2] of 0.9 nM. Moreover, in test [3], the Intrinsic activity was 0.98. Further, the Ratio in test [4] was found to be 1.3.

With `CNC(=O)O[C@H]1O[C@@H](n2cnc3c(N[C@H]4C[C@@H]5C[C@@H]4C4SC45)ncnc32)[C@H](O)[C@@H]1O` (stereo partly drawn), the IC50 in test [1] amounted to 410 nM. In test [2], this compound showed a Ki of 590 nM. The Intrinsic activity in test [3] was 1.03. Further, in test [4], the Ratio is 1.3.

Turning to `CC(=O)NC[C@H]1O[C@@H](n2cnc3c(N[C@H]4C[C@H]5CC[C@H]4C5)ncnc32)[C@H](O)[C@@H]1O`, the IC50 in test [1] turned out to be 605 nM. For the same compound, the Ki in test [2] came out at 5860 nM. Moreover, the Intrinsic activity in test [3] was 0.97. For the same compound, the Ratio in test [4] was 1.3.

`CNC[C@H]1O[C@@H](n2cnc3c(N[C@H]4C[C@H]5CC[C@H]4C5)ncnc32)[C@H](O)[C@@H]1O`: the IC50 in test [1] turned out to be 867 nM. Also, in test [2], the Ki is greater than 10000 nM. In addition, the Intrinsic activity in test [3] turned out to be 0.83. Besides, in test [4], the Ratio amounted to 1.3.

`CCCNC[C@H]1O[C@@H](n2cnc3c(N[C@H]4C[C@H]5CC[C@H]4C5)ncnc32)[C@H](O)[C@@H]1O`: the IC50 in test [1] stood at 4950 nM. The affinity in test [2] corresponds to a Ki of 7200 nM. For the same compound, the Intrinsic activity in test [3] came out at 0.91. For the same compound, the Ratio in test [4] is 1.3.

For `NC[C@H]1O[C@@H](n2cnc3c(N[C@H]4C[C@H]5CC[C@H]4C5)ncnc32)[C@H](O)[C@@H]1O`, the IC50 in test [1] stood at 351 nM. The compound further had a Ki in test [2] of 3930 nM. Also, the Intrinsic activity in test [3] came to 0.92. For the same compound, the Ratio in test [4] came to 1.3.

As for `CCSC[C@H]1O[C@@H](n2cnc3c(N[C@H]4C[C@H]5CC[C@H]4C5)ncnc32)[C@H](O)[C@@H]1O`, in test [1], the IC50 stood at 28 nM. Moreover, the Ki in test [2] stood at 122 nM. Moreover, in test [3], the Intrinsic activity came out at 1.04. For the same compound, the Ratio in test [4] stood at 1.3.

On to `O[C@@H]1[C@H](O)[C@@H](CS)O[C@H]1n1cnc2c(N[C@H]3C[C@H]4CC[C@H]3C4)ncnc21`, for which the IC50 in test [1] was found to be 224 nM. The compound also gave a Ki in test [2] of 283 nM. Also, the Intrinsic activity in test [3] amounted to 1. The Ratio in test [4] was determined as 1.3.

As to `C[Se]C[C@H]1O[C@@H](n2cnc3c(N[C@H]4C[C@@H]5C[C@@H]4C4SC45)ncnc32)[C@H](O)[C@@H]1O` (stereo partly drawn), in test [1], the IC50 amounted to 12 nM. Also, in test [2], the Ki amounted to 30 nM. In test [3], the Intrinsic activity amounted to 0.96. In test [4], the Ratio worked out at 1.3.

These data come from ChEMBL document CHEMBL1144002, “N6-substituted C5'-modified adenosines as A1 adenosine receptor agonists” (Bioorg Med Chem, 2008).
